Measured values as given in patent US20140031434A1, “Use of Patchouli Alcohol in Preparation of Drug Against Helicobacter Pylori” (priority 2011, published 2014).
Converted amounts (≈) assume the structure as drawn. Marks after values point to notes of the source that are not given here.

Assays:
[1] = test system: Helicobacter pylori (Hp) ATCC43504; assay: In vitro anti-Helicobacter pylori effect, minimum inhibitory concentration (filter paper on Columbia Blood Agar Plate); assay type: cell-based; details: Helicobacter pylori ATCC43504, 37° C. micro-aerobic, 72 hours
[2] = test system: Candida albicans (98001); assay: Selective inhibitory effect, in vitro MIC (broth dilution, turbidity); assay type: cell-based; details: 48 h, read-out: In vitro Minimum Inhibitory Concentration MIC
Excerpt: (§1) Strains: Lactobacillus acidophilus, E. coli, Staphylococcus epidermidis, yeast, thermophilic Bifidobacterium, Staphylococcus aureus (26112), Alpha-Hemolytic Streptococcus (32209), Shigella (32013), Streptococcus pneumoniae (31001), Catarrhal, Corynebacterium diphtheriae (38101), Escherichia coli (44113), Pseudomonas aeruginosa (10211), Salmonella Typhi and Candida albicans (98001), Catarrhal is isolated from specimen collected from the throat in the bacterial laboratory, Candida albicans is donated by Guangzhou Institute for Food and Drug Control, all other strains are provided by Beijing Institute for Food and Drug Control; Trichophyton gypseum (4097), Trichophyton cerebriforme, Trichophyton tonsurans, Microsporum gypseum, Microsporum lanosum, Epidermophyton floccosum (previously known as Trichophyton floccosum) and Trichophyton rubrum are donated by Shanghai Huashan Hospital.
(§2) 3. Culture medium: nutrient broth, 1% dextrose broth, 1% serum broth, Sabouraud agar plate, prepared by conventional preparation method.
(§3) Drug preparation: Use nutrient broth to prepare a series of 14 drug solution in which the content of drug per ml are, 0.1 g, 0.05 g, 0.025 g . . . 1.22×10^−5 g respectively and the total volume of each test tube is 1 ml, and sterile by steam sterilization. […]

[3] = test system: Epidermophyton floccosum; assay: Selective inhibitory effect, in vitro MIC; assay type: cell-based; details: read-out: In vitro Minimum Inhibitory Concentration MIC
Excerpt: as §1, §2
(§4) Drug preparation: Use nutrient broth to prepare a series of 14 drug solution in which the content of drug per ml are, 0.1 g, 0.05 g, 0.025 g . . . 1.22×10^−5 g respectively and the total volume of each test tube is 1 ml, and sterile by steam sterilization. For Streptococcus testing, 1% glucose is added to the sterile drug solution, for Streptococcus pneumoniae and Corynebacterium diphtheria, 10% inactivated rabbit serum is added, and for Candida albicans, the drug solution is prepared by using Sabouraud broth.
(§5) Control: for strain control, testing bacteria is added to non-drug culture media; for drug control, no bacteria is added to the drug solution.
(§6) For each drug solution at different concentration and for bacteria control, add 1 ml of 1:2000 testing bacteria solution (8 hours cultured substance) to each tube, incubate bacteria culture at 37° C. for 18 hours and observe the results. For Candida albicans, 24 hours cultured substance is used, and incubate bacteria culture at 28° C. for 48 hours after bacteria is added to the drug solution and then observe the results. Turbidity is the indicator and visually observe each tube to determine if there is any bacterial growth.
(§7) Determine minimum inhibitory concentration (MIC): MIC is the lowest concentration of an antimicrobial that will inhibit the visible growth of a microorganism.

[4] = test system: Microsporum gypseum; assay: Selective inhibitory effect, in vitro MIC; assay type: cell-based; details: Nannizzia gypsea, read-out: In vitro Minimum Inhibitory Concentration MIC
Excerpt: as §1, §2, §4, §5, §6, §7

[5] = test system: Trichophyton gypseum (4097); assay: Selective inhibitory effect, in vitro MIC; assay type: cell-based; details: Nannizzia gypsea, read-out: In vitro Minimum Inhibitory Concentration MIC
Excerpt: as §1, §2, §4, §5, §6, §7

[6] = test system: Trichophyton tonsurans; assay: Selective inhibitory effect, in vitro MIC; assay type: cell-based; details: read-out: In vitro Minimum Inhibitory Concentration MIC
Excerpt: as §1, §2, §4, §5, §6, §7

[7] = test system: Trichophyton rubrum; assay: Selective inhibitory effect, in vitro MIC; assay type: cell-based; details: read-out: In vitro Minimum Inhibitory Concentration MIC
Excerpt: as §1, §2, §4, §5, §6, §7

[8] = test system: Microsporum lanosum; assay: Selective inhibitory effect, in vitro MIC; assay type: cell-based; details: read-out: In vitro Minimum Inhibitory Concentration MIC
Excerpt: as §1, §2, §4, §5, §6, §7

[9] = test system: Trichophyton cerebriforme; assay: Selective inhibitory effect, in vitro MIC; assay type: cell-based; details: read-out: In vitro Minimum Inhibitory Concentration MIC
Excerpt: as §1, §2, §4, §5, §6, §7

[10] = cited from earlier work
[11] = test system: Helicobacter pylori; assay: In vivo anti-Helicobacter pylori effect, Hp infection model, rapid urease test of pyloric antrum tissue; design: species or system BALB/c mice; details: 1 time per day for 8 weeks
Method: (§8) Take SPF (specific pathogen free) BALB/c mice, equal numbers of male and female, each weight 18˜20 g; divide randomly into three groups, which are normal control group, model control group and triple therapy group. Give the corresponding experimental drugs according to table 1 below. Hp infection model is prepared by using antibiotics and oral gavage of Hp. Day 1, oral gavage 0.5 ml/mouse antibiotics mixture (0.25 ml ampicillin (20 mg/ml), 0.15 ml gentamicin (4 mg/ml), 0.1 ml azithromycin (50 mg/ml)) for three consecutive days for all testing animals, use equal volume of physiological saline for normal control group; starting from day 4, water fasting for 12 hours, oral gavage freshly prepared Hp suspended solution (0.5 ml/mouse/day, concentration 10^8 CFU/ml) for seven consecutive days, use equal volume of physiological saline for normal control group. Starting from day 11, oral gavage testing drug to the testing animals (use equal volume of physiological saline for normal control group), 1 time per day for 8 consecutive weeks. After the last drug administration, fasting for 24 hours. Take serum sample by orbital bleeding and centrifugation. Test for Helicobacter pylori urease antibody (according to the instruction of the instrument); sacrifice mice, tissue from pyloric antrum is first taken for rapid urease test and then observe for 3 minutes, and determine the test results in which strong positive refers to color change at peripheral portion from yellow to red within 1 minute, weak positive refers to color change within 3 minutes, and negative refers to no color change; the remaining stomach tissue is fixed in 10% formalin, then embed and cutting for carbol-fuchsin test, observe the Hp infection condition of the gastric mucosa and determine the condition.

[12] = test system: Streptococcus pneumoniae (31001); assay: Selective inhibitory effect, in vitro MIC (broth dilution, turbidity); assay type: cell-based; details: 10% inactivated rabbit serum added, 37° C., 18 hours, read-out: In vitro Minimum Inhibitory Concentration MIC
Excerpt: as §1, §2, §3

[13] = in vivo; details: for LD50 at 14 days: both, KM, mouse, in vivo, Bliss method
Method: (§9) 1.3 Testing animal: KM mice, SPF grade, weight 18-22 g, equal numbers of male and female, obtained from Animal Laboratory Center of Guangzhou University of Chinese Medicine, Certificate number: SCXK (Yue) 2008-0020.
(§10) 2.1 Preparation of drug solution: weight a predetermined quantity of patchouli alcohol and put it into a beaker, add suitable amount of peanut oil into the beaker as solvent, mix while heating until the patchouli alcohol is dissolved. Cool under room condition and then add peanut oil to the predetermined amount to obtain the patchouli alcohol solution.
(§11) 2.2 Animal grouping: Take 200 mice, weight between 18˜22 g, divided by weight and randomly divided into 4 groups, namely: orogastric gavage drug group, orogastric gavage control group (equal volume of peanut oil is used), intraperitoneal injection drug group, Intraperitoneal injection control group (equal volume of peanut oil is used), each group includes 50 mice, equal numbers of male and female, raise for one week before experiment for the mice to adapt to the environment, water fasting for 24 hours before experiment.
Set the initial dose at 6.32 g/kg, at a ratio of 1:0.75 divide 5 groups, each group includes 10 mice, equal numbers of male and female, give patchouli alcohol solution to each of the mice once by intraperitoneal injection according to the dosage at 2.0 g/kg, 2.67 g/kg, 3.56 g/kg, 4.70 g/kg, 6.32 g/kg for each group. Observe consecutively for 14 days, record toxicity reaction and lethal rate every day, and calculate the medium lethal dose (LD50) by Bliss method.

[14] = in vivo; details: orogastric gavage; for LD50 at 14 days: both, KM, mouse, in vivo, po, Bliss method
Method: as §9, §10, §11
Set the initial dose at 7.90 g/kg, at a ratio of 1:0.75 divide 5 groups, each group includes 10 mice, equal numbers of male and female, give patchouli alcohol solution to mice once by orogastric gavage according to the dosage at 2.5 g/kg, 3.33 g/kg, 4.44 g/kg, 5.93 g/kg, 7.90 g/kg for each group. Observe consecutively for 14 days, record toxicity reaction and lethal rate every day, and calculate the medium lethal dose (LD50) by Bliss method.

[15] = test system: Helicobacter pylori; assay: In vivo anti-Helicobacter pylori effect, Hp infection model, carbol-fuchsin staining of stomach tissue; design: species or system BALB/c mice
Method: as §8
Histopathological findings: after staining stomach tissue by carbol-fuchsin method, the Hp become […] in color, have a curved or rod shape, and mainly locate in gastric pit surface and mucus.

[16] = test system: Helicobacter pylori; assay: In vivo anti-Helicobacter pylori effect, Hp infection model, serum urease antibody to Helicobacter pylori; design: species or system BALB/c mice; details: 1 time per day for 8 weeks
Method: as §8

[17] = High Dose 40 mg/kg oral gavage, 10 animals
[18] = Low Dose 10 mg/kg oral gavage, 11 animals
[19] = Medium Dose 20 mg/kg oral gavage, 11 animals
[20] = mice, intraperitoneal injection
[21] = mice, intraperitoneal injection, pre-test
[22] = 10 mg/kg oral gavage, 11 animals
[23] = 20 mg/kg oral gavage, 11 animals
[24] = 40 mg/kg oral gavage, 10 animals

With `CC1(C)S[C@@H]2[C@H](NC(=O)[C@H](N)c3ccc(O)cc3)C(=O)N2[C@H]1C(=O)O` [Amoxicillin, reference compound] the “MIC (minimum inhibitory concentration)” value [1] was 120 µg/mL (≈ 328 µM).

In the case of `CC(=O)N1CCN(c2ccc(OCC3COC(Cn4ccnc4)(c4ccc(Cl)cc4Cl)O3)cc2)CC1` (stereo not drawn) [Ketoconazole], the MIC [2] is reported as 12200 µg/mL (≈ 23000 µM), the MIC [3] is reported as 383 µg/mL (≈ 721 µM) and the MIC [4] is reported as 383 µg/mL (≈ 721 µM). It also gave an MIC [5] of 383 µg/mL (≈ 721 µM), an MIC [6] of 49000 µg/mL (≈ 92200 µM) and an MIC [7] of 24400 µg/mL (≈ 45900 µM). For the same compound, the MIC [8] was 24500 µg/mL (≈ 46100 µM) and the MIC [9] was 383 µg/mL (≈ 721 µM).

For `C[C@H]1CC[C@@]2(O)C(C)(C)[C@@H]3CC[C@@]2(C)[C@H]1C3` [Patchouli Alcohol, (1R,4S,4aS,6R,8aS)-4,a,9,9-tetramethyloctahydro-1,6-methanonaphthalen-1(2H)-ol], the “solubility in ethanol and ether and common organic solvent” value ([10]; ethanol, ether, common organic solvent) is listed as “soluble”, the solubility in water ([10]; water) is listed as “insoluble” and the “Strong positive (count)” value [11, 17] is listed as 2 count. For the same compound, the “Total Positive Rate (%)” value [11, 17] was 40.00%, the “Weak positive (count)” value [11, 17] was 2 count and the “Strong positive (count)” value [11, 18] was 0 count. For the same compound, the “Total Positive Rate (%)” value [11, 18] was 36.36%, the “Weak positive (count)” value [11, 18] was 4 count and the “Strong positive (count)” value [11, 19] was 0 count. The “Total Positive Rate (%)” value [11, 19] was 27.27* %, the “Weak positive (count)” value [11, 19] was 3 count and the MIC [12] was 510 µg/mL (≈ 2290 µM). It also gave an LD50 at 14 days ([13]; LD50, mice, intraperitoneal acute toxicity (sentence prints orogastric gavage), peanut oil solution) of 3140 mg/kg, an LD50 at 14 days ([13]; ip, LD50 95% confidence interval lower limit, mice, intraperitoneal acute toxicity) of 2660 mg/kg and an LD50 at 14 days ([13]; ip, LD50 95% confidence interval upper limit, mice, intraperitoneal acute toxicity) of 3680 mg/kg. The “autopsy of the dead mice” value [13, 20] was “no obvious abnormality is found in major organs”, the “time at which death usually occurs” value [13, 20] was 6˜12 hours and the maximum lethal dose [13, 21] was 6320 mg/kg. The minimum lethal dose [13, 21] was 2000 mg/kg, the LD50 at 14 days ([14]; LD50 95% confidence interval lower limit, mice) was 4040 mg/kg and the LD50 at 14 days ([14]; LD50 95% confidence interval upper limit, mice) was 5500 mg/kg. The LD50 at 14 days ([14]; LD50, mice, peanut oil solution) was 4690 mg/kg, the “autopsy of the dead mice” value ([14]; mice) was “no obvious abnormality is found in major organs” and the “time at which death usually occurs” value ([14]; mice) was 6˜12 hours. For the same compound, the maximum lethal dose ([14]; mice, pre-test) was 7900 mg/kg, the minimum lethal dose ([14]; mice, pre-test) was 2500 mg/kg and the “animals with blue Hp found in the gastric pit (positive/total)” value ([15]; high dose group) was 6/11. For the same compound, the infection rate ([15]; high dose group) was 60%, the “animals with blue Hp found in the gastric pit and the mucosal surface (positive/total)” value ([15]; low dose group) was 9/11 and the infection rate ([15]; low dose group) was 81.81%. For the same compound, the “animals with blue Hp found in the gastric pit (positive/total)” value ([15]; medium dose group) was 7/11, the infection rate ([15]; medium dose group) was 63.63% and the “MIC (minimum inhibitory concentration)” value [1] was 78 µg/mL (≈ 351 µM). The “Positive (Count)” value [16, 22] was 0 Count, the “Positive rate (%)” value [16, 22] was 0.00** % and the “Positive (Count)” value [16, 23] was 0 Count. For the same compound, the “Positive rate (%)” value [16, 23] was 0.00** %, the “Positive (Count)” value [16, 24] was 0 Count and the “Positive rate (%)” value [16, 24] was 0.00** %.
